Where a name gives a salt, the structure may show the parent alone.
| flash point | SMILES |
| --- | --- |
| -20.00 °C | C[CH2][Al]([Cl])[CH2]C.C[CH2][Al]([Cl])[Cl] [chloro(diethyl)alumane;dichloro(ethyl)alumane] |
| -23.00 °C | C[CH2][Al]([Cl])[CH2]C [chloro(diethyl)alumane] |
| 2.00 °C | CCCCCCCCCCCCCCCCCC(=O)[O-].[Cl-].[Cl-].[Cl-].[Cl-].[Cr+3].[Cr+3].[OH-] [chromium(3+);octadecanoate;tetrachloride;hydroxide] |
| 6.00 °C | C1CCCCCC1 [cycloheptane] |
| 57.00 °C | O=CC1CC=CCC1 (stereo not given) [cyclohex-3-ene-1-carbaldehyde] |
| 31.00 °C | NC1CCCCC1 [cyclohexanamine] |
| 68.00 °C | OC1CCCCC1 [cyclohexanol] |
| 58.00 °C | CC(=O)OC1CCCCC1 [cyclohexyl acetate] |
| 4.00 °C | [C-]1=CC=CC1.[C-]1=CC=CC1.[Ni+2] [cyclopenta-1,3-diene;nickel(2+)] |
| 4.00 °C | C1=CCC=C1.C1=CCC=C1.[Ni] [cyclopenta-1,3-diene;nickel] |
| 51.00 °C | OC1CCCC1 [cyclopentanol] |
| 30.00 °C | O=C1CCCC1 [cyclopentanone] |
| -34.00 °C | C1=CCCC1 [cyclopentene] |
| 46.00 °C | CCCCCCCCCC [decane] |
| 127.00 °C | C=CC(=O)OCCCCCCCCCC [decyl prop-2-enoate] |
| 24.00 °C | CC[Si](Cl)(Cl)CC [dichloro(diethyl)silane] |
| 104.00 °C | CCOC(=O)/C=C/C(=O)OCC [diethyl (E)-but-2-enedioate] |
| 90.00 °C | CCOC(=O)CCC(=O)OCC [diethyl butanedioate] |
| 25.00 °C | CCOC(=O)OCC [diethyl carbonate] |
| 76.00 °C | CCOC(=O)C(=O)OCC [diethyl oxalate] |
| 224.00 °C | CCCCCCCOC(=O)c1ccccc1C(=O)OCCCCCCC [diheptyl benzene-1,2-dicarboxylate] |
| -18.00 °C | COCOC [dimethoxymethane] |

| flash point | SMILES |
| --- | --- |
| 85.00 °C | COC(=O)CCC(=O)OC [dimethyl butanedioate] |
| 103.00 °C | COC(=O)CCCC(=O)OC [dimethyl pentanedioate] |
| 196.00 °C | CCCCCCCCOP(=O)(O)OCCCCCCCC [dioctyl hydrogen phosphate] |
| 113.00 °C | CCCCCCCCCCCCCCCCCCCCCC [docosane] |
| 178.00 °C | CCCCCCCCCCCCN [dodecan-1-amine] |
| 113.00 °C | CCCCCCCCCCCC(=O)O [dodecanoic acid] |
| -136.00 °C | C=C [ethene] |
| 63.00 °C | CCOc1ccccc1 [ethoxybenzene] |
| 82.00 °C | C=C(C#N)C(=O)OCC [ethyl 2-cyanoprop-2-enoate] |
| 46.00 °C | CCOC(=O)C(C)O (stereo not given) [ethyl 2-hydroxypropanoate] |
| 16.00 °C | C=C(C)C(=O)OCC [ethyl 2-methylprop-2-enoate] |
| 64.00 °C | CCOC(=O)CC(C)O (stereo not given) [ethyl 3-hydroxybutanoate] |
| 113.00 °C | CCOC(=O)C#Cc1ccccc1 [ethyl 3-phenylprop-2-ynoate] |
| 73.00 °C | CCOC(=O)NC [ethyl N-methylcarbamate] |
| 92.00 °C | CCOC(N)=O [ethyl carbamate] |
| 12.00 °C | CCOC(=O)CC [ethyl propanoate] |
| 35.00 °C | CCC1CCCCC1 [ethylcyclohexane] |
| -10.00 °C | CCSCC [ethylsulfanylethane] |
| 66.00 °C | CC(=O)OCc1ccco1 [furan-2-ylmethyl acetate] |
| 113.00 °C | CCCCCCCCCCCCCCCCCCCCC [henicosane] |
| 71.00 °C | CCCCCC(C)O (stereo not given) [heptan-2-ol] |
| 39.00 °C | CCCCCC(C)=O [heptan-2-one] |

| flash point | SMILES |
| --- | --- |
| 46.00 °C | CCCCC(=O)CC [heptan-3-one] |
| 49.00 °C | CCCC(=O)CCC [heptan-4-one] |
| -4.00 °C | CCCCCCC [heptane] |
| 68.00 °C | CCCCCCCOC(C)=O [heptyl acetate] |
| 127.00 °C | CC=CC=CC(=O)O [hexa-2,4-dienoic acid] |
| 141.00 °C | CCCCCCCCCCCCCCCCN [hexadecan-1-amine] |
| 135.00 °C | CCCCCCCCCCCCCCCC [hexadecane] |
| 23.00 °C | CCCCC(C)=O [hexan-2-one] |
| 81.00 °C | NCCCCCCN [hexane-1,6-diamine] |
| 102.00 °C | OCCCCCCO [hexane-1,6-diol] |
| 101.00 °C | CC(O)CCC(C)O (stereo not given) [hexane-2,5-diol] |
| 191.00 °C | O=C(O)CCCCC(=O)O [hexanedioic acid] |
| 68.00 °C | C=CC(=O)OCCCCCC [hexyl prop-2-enoate] |
| 100.00 °C | CCCCCCCCCCCCCCCCCCCC [icosane] |
| 77.00 °C | Ic1ccccc1 [iodobenzene] |
| 189.00 °C | CS(=O)(=O)O [methanesulfonic acid] |
| 79.00 °C | C=C(C#N)C(=O)OC [methyl 2-cyanoprop-2-enoate] |
| 51.00 °C | COC(=O)C(C)O (stereo not given) [methyl 2-hydroxypropanoate] |
| 10.00 °C | C=C(C)C(=O)OC [methyl 2-methylprop-2-enoate] |
| 70.00 °C | COC(=O)CC(C)=O [methyl 3-oxobutanoate] |
| 83.00 °C | COC(=O)c1ccccc1 [methyl benzoate] |
| 22.00 °C | CCCCC(=O)OC [methyl pentanoate] |

| flash point | SMILES |
| --- | --- |
| 38.00 °C | COS(=O)(=O)C(F)(F)F [methyl trifluoromethanesulfonate] |
| -4.00 °C | CC1CCCCC1 [methylcyclohexane] |
| -38.00 °C | CSC [methylsulfanylmethane] |
| 153.00 °C | Oc1cccc2ccccc12 [naphthalen-1-ol] |
| 153.00 °C | Oc1ccc2ccccc2c1 [naphthalen-2-ol] |
| 226.00 °C | Nc1cccc2c(N)cccc12 [naphthalene-1,5-diamine] |
| 26.00 °C | CC=CCCCCCC [non-2-ene] |
| 64.00 °C | CCCCCCCC(C)=O [nonan-2-one] |
| 60.00 °C | CCCCC(=O)CCCC [nonan-5-one] |
| 78.00 °C | CCCCCCCCCS [nonane-1-thiol] |
| 31.00 °C | CCCCCCCCC [nonane] |
| 9.00 °C | C=CCCCCC=C [octa-1,7-diene] |
| 200.00 °C | CCCCCCCCCCCCCCCCCCO [octadecan-1-ol] |
| 196.00 °C | CCCCCCCCCCCCCCCCCC(=O)O [octadecanoic acid] |
| 52.00 °C | CCCCCCC(C)=O [octan-2-one] |
| 46.00 °C | CCCCCCCCS [octane-1-thiol] |
| 217.00 °C | CCCCCCCCOC(=O)CCCCCCCC1OC1CCCCCCCC (stereo not given) [octyl 8-(3-octyloxiran-2-yl)octanoate] |
| -20.00 °C | C1CCOCC1 [oxane] |
| 127.00 °C | O=C1CCCCCO1 [oxepan-2-one] |
| -28.00 °C | C1COC1 [oxetane] |

| SMILES | flash point |
| --- | --- |
| CCC[CH2][Sn]([Cl])([Cl])[Cl] [butyl(trichloro)stannane] | 81.00 °C |
| Clc1ccccc1 [chlorobenzene] | 24.00 °C |
| CCCCOC(=O)CCC(=O)OCCCC [dibutyl butanedioate] | 135.00 °C |
| ClC(Cl)c1ccccc1 [dichloromethylbenzene] | 92.00 °C |
| O=C(OC1CCCCC1)c1ccccc1C(=O)OC1CCCCC1 [dicyclohexyl benzene-1,2-dicarboxylate] | 207.00 °C |
| CCOC(=O)c1ccccc1C(=O)OCC [diethyl benzene-1,2-dicarboxylate] | 140.00 °C |
| CCOS(=O)(=O)OCC [diethyl sulfate] | 104.00 °C |
| COS(=O)(=O)OC [dimethyl sulfate] | 83.00 °C |
| CN(C)C(=S)SSC(=S)N(C)C [dimethylcarbamothioylsulfanyl N,N-dimethylcarbamodithioate] | 138.00 °C |
| CN(C)C#N [dimethylcyanamide] | 71.00 °C |
| CCO [ethanol] | 13.00 °C |
| CCOC(=O)CBr [ethyl 2-bromoacetate] | 48.00 °C |
| CCOS(=O)(=O)c1ccc(C)cc1 [ethyl 4-methylbenzenesulfonate] | 158.00 °C |
| CCCC(=O)OCC [ethyl butanoate] | 24.00 °C |
| CCON=O [ethyl nitrite] | -35.00 °C |
| c1ccc2c(c1)-c1cccc3cccc-2c13 [fluoranthene] | 198.00 °C |
| O=Cc1ccco1 [furan-2-carbaldehyde] | 60.00 °C |
| OCc1ccco1 [furan-2-ylmethanol] | 75.00 °C |
| O=C=Nc1ccccc1 [isocyanatobenzene] | 56.00 °C |
| CN [methanamine] | 0.00 °C |
| CO [methanol] | 11.00 °C |
| COC(=O)c1ccccc1N [methyl 2-aminobenzoate] | 104.00 °C |
| COC(=O)CCl [methyl 2-chloroacetate] | 52.00 °C |
| COC=O [methyl formate] | -32.00 °C |
| CN=C=O [methylimino(oxo)methane] | -7.00 °C |
| CN=C=S [methylimino(sulfanylidene)methane] | 35.00 °C |
| Nc1ccc2ccccc2c1 [naphthalen-2-amine] | 157.00 °C |
| O=[N+]([O-])c1ccccc1 [nitrobenzene] | 88.00 °C |
| OCC1CO1 (stereo not given) [oxiran-2-ylmethanol] | 72.00 °C |
